Several values for one entry are separate records, joined by “and”; a condition that tells them apart may be missing. Identical values can stand only once.
Columns and labels:
[1] = target: T1, Type-1 angiotensin II receptor (Oryctolagus cuniculus, UniProt P34976); assay: Displacement of [125I]Sar1-Ile8-AII (without BSA) from type 1 Angiotensin II receptor of rabbit aorta; format: tissue-based
T1 sequence (P34976 whole entry): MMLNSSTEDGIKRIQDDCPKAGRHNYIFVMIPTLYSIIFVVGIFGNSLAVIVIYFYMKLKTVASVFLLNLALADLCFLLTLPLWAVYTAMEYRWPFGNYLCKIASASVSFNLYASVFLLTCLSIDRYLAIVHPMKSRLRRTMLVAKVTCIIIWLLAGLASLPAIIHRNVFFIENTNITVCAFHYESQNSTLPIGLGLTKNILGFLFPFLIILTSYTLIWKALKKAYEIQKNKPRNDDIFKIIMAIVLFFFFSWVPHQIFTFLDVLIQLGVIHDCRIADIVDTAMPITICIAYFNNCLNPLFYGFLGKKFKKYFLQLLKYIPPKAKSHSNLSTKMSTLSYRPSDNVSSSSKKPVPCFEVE

[2] = target: T1, Type-1 angiotensin II receptor; assay: Ability to displace [125I]Sar1-Ile8-AII from angiotensin II receptor, type 1 in rabbit aorta in presence of 0.2% bovine serum albumin (BSA) was determined in vitro; format: tissue-based
[3] = target: Angiotensin II receptor (Rattus norvegicus) (UniProt P29089+P25095+P35351); assay: Duration of action as time for pressor response to fall below 30% for a single bolus by intravenous dose; format: functional, organism-based
[4] = target: T2, Type-2 angiotensin II receptor (Homo sapiens) (UniProt P50052); assay: In vitro antagonist activity against the Angiotensin II (type 2) receptor.; format: functional
T2 sequence (whole entry): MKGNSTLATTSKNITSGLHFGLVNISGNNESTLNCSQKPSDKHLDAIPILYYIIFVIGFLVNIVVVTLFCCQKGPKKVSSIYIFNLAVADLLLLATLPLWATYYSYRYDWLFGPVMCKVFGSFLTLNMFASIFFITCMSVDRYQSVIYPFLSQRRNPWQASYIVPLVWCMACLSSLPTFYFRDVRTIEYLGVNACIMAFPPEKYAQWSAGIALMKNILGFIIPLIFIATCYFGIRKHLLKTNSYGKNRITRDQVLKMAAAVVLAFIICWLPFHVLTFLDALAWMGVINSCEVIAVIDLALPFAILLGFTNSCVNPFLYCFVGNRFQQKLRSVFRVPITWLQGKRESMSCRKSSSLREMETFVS

[5] = system: Rattus norvegicus; assay: Compound was evaluated in vivo for inhibition of the AII pressor response in normotensive rat at dose 1 mg/kg, iv after 0.2 hour; format: functional
[6] = system: Rattus norvegicus; assay: Compound was evaluated in vivo for inhibition of the AII pressor response in normotensive rat at dose 1 mg/kg, iv after 4.5 hour; format: functional
[7] = system: Rattus norvegicus; assay: The duration of action is expressed as the time for the % inhibition of pressor response to fall below 30% for a single bolus of the drug administered perorally.; format: functional
[8] = system: Rattus norvegicus; assay: Compound was evaluated in vivo for inhibition of the AII pressor response in normotensive rat at dose 1 mg/kg, p.o. after 0.2 hour; format: functional; conditions: route oral
[9] = system: Rattus norvegicus; assay: Compound was evaluated in vivo for inhibition of the AII pressor response in normotensive rat at dose 3 mg/kg, p.o. after 4.2 hour; format: functional; conditions: route oral
[10] = system: Rattus norvegicus; assay: Compound was evaluated in vivo for inhibition of the AII pressor response in normotensive rat at dose 1 mg/kg, iv; format: functional
[11] = system: Rattus norvegicus; assay: Compound was evaluated in vivo for inhibition of the AII pressor response in normotensive rat at dose 3 mg/kg, iv after 2.5 hour; format: functional
[12] = system: Rattus norvegicus; assay: Compound was evaluated in vivo for inhibition of the AII pressor response in normotensive rat at dose 0.1 mg/kg, p.o. after >3 hour; format: functional; conditions: route oral
[13] = system: Rattus norvegicus; assay: Compound was evaluated in vivo for inhibition of the AII pressor response in normotensive rat at dose 0.3 mg/kg, iv after 4 hour; format: functional
[14] = system: Rattus norvegicus; assay: Compound was evaluated in vivo for inhibition of the AII pressor response in normotensive rat at dose 1 mg/kg, p.o. after >5 hour; format: functional; conditions: route oral
[15] = system: Rattus norvegicus; assay: Compound was evaluated in vivo for inhibition of the AII pressor response in normotensive rat at dose 0.03 mg/kg, po; format: functional
[16] = system: Rattus norvegicus; assay: Compound was evaluated in vivo for inhibition of the AII pressor response in normotensive rat at dose 1 mg/kg, iv after >6 hour; format: functional
[17] = system: Rattus norvegicus; assay: Compound was evaluated in vivo for inhibition of the AII pressor response in normotensive rat at dose 0.1 mg/kg, iv after 2.5 hour; format: functional
[18] = system: Rattus norvegicus; assay: Compound was evaluated in vivo for inhibition of the AII pressor response in normotensive rat at dose 0.03 mg/kg, iv; format: functional
[19] = system: Rattus norvegicus; assay: Compound was evaluated in vivo for inhibition of the AII pressor response in normotensive rat at dose 0.3 mg/kg, p.o. after >3.5 hour; format: functional; conditions: route oral
[20] = system: Rattus norvegicus; assay: Compound was evaluated in vivo for inhibition of the AII pressor response in normotensive rat at dose 1 mg/kg, iv after <0.5 hour; format: functional
[21] = system: Rattus norvegicus; assay: Compound was evaluated in vivo for inhibition of the AII pressor response in normotensive rat at dose 1 mg/kg, iv after 1 hour; format: functional
[22] = system: Rattus norvegicus; assay: Compound was evaluated in vivo for inhibition of the AII pressor response in normotensive rat at dose 1 mg/kg, iv after 1.8 hour; format: functional
[23] = system: Rattus norvegicus; assay: Compound was evaluated in vivo for inhibition of the AII pressor response in normotensive rat at dose 0.3 mg/kg, iv; format: functional
[24] = system: Rattus norvegicus; assay: Compound was evaluated in vivo for inhibition of the AII pressor response in normotensive rat at dose 1 mg/kg, iv after 0.5 hour; format: functional
[25] = system: Rattus norvegicus; assay: Compound was evaluated in vivo for inhibition of the AII pressor response in normotensive rat at dose 3 mg/kg, p.o. after >6 hour; format: functional; conditions: route oral
[26] = system: Rattus norvegicus; assay: Compound was evaluated in vivo for inhibition of the AII pressor response in normotensive rat at dose 1 mg/kg, iv after 0.3 hour; format: functional
[27] = system: Rattus norvegicus; assay: Compound was evaluated in vivo for inhibition of the AII pressor response in normotensive rat at dose 3 mg/kg, iv after >6 hour; format: functional
[28] = system: Rattus norvegicus; assay: Compound was evaluated in vivo for inhibition of the AII pressor response in normotensive rat at dose 1 mg/kg, iv after 1.2 hour; format: functional
[29] = system: Rattus norvegicus; assay: Compound was evaluated in vivo for inhibition of the AII pressor response in normotensive rat at dose 0.3 mg/kg, p.o. after 3.5 hour; format: functional; conditions: route oral

Row | SMILES | IC50 [1] [nM] | IC50 [2] [nM] | Duration [3] | Activity [4] [nM] | also measured
1 | CCCCc1nc2ccc(-c3ccc(Cl)cc3)cc2c(=O)n1Cc1ccc(-c2ccccc2-c2nn[nH]n2)cc1 | 30 |  |  |  | 
2 | CCCCc1nc2ccc(N(C)C(=O)OCC(C)C)cc2c(=O)n1Cc1ccc(-c2ccccc2-c2nnn[nH]2)cc1 | 1.6 | 3.4 |  |  | 
3 | CCCCc1nc2cc(OC)c(OC)cc2c(=O)n1Cc1ccc(-c2ccccc2-c2nn[nH]n2)cc1 |  |  | 0.2 h | > 1000 | inhibition in vivo at 1 mg/kg [5]: 30%
4 | CC(=O)Nc1ccc2nc(-c3ccc(-c4ccccc4C(=O)O)cc3)n(Cc3ccc(-c4ccccc4-c4nn[nH]n4)cc3)c(=O)c2c1 |  | 50 |  |  | 
5 | CCCCc1nc2ccc(NC)cc2c(=O)n1Cc1ccc(-c2ccccc2-c2nnn[nH]2)cc1 |  | 2 |  |  | 
6 | O=C(O)c1ccccc1-c1ccc(-c2nc3ccccc3c(=O)n2Cc2ccc(-c3ccccc3-c3nn[nH]n3)cc2)cc1 |  | 20 |  |  | 
7 | CCCCc1nc2ccc(NC(=O)OCC(C)C)cc2c(=O)n1Cc1ccc(-c2ccccc2-c2nnn[nH]2)cc1 | 1.6 | 6.4 |  |  | 
8 | CCCCC(=O)Nc1ccc2nc(CCCC)n(Cc3ccc(-c4ccccc4-c4nnn[nH]4)cc3)c(=O)c2c1 | 8.9 |  |  |  | 
9 | CCCCc1nc2ccc(NS(=O)(=O)C(F)(F)F)cc2c(=O)n1Cc1ccc(-c2ccccc2-c2nn[nH]n2)cc1 |  | 120 |  |  | 
10 | CCCCc1nc2ccc(N)cc2c(=O)n1Cc1ccc(-c2ccccc2-c2nn[nH]n2)cc1 |  |  | 4.5 h | > 1000 | inhibition in vivo at 1 mg/kg [6]: 93%; Duration [7]: 0.2 h; inhibition in vivo at 1 mg/kg [8]: 32%
11 | CCCCc1nc2ccc(C)cc2c(=O)n1Cc1ccc(-c2ccccc2-c2nnn[nH]2)cc1 | 1.1 |  |  |  | 
12 | Cc1ccc2nc(-c3ccc(-c4ccccc4C(=O)O)cc3)n(Cc3ccc(-c4ccccc4-c4nn[nH]n4)cc3)c(=O)c2c1 |  | 92 |  |  | 
13 | CCCCc1nc2ccc(C)cc2c(=O)n1Cc1ccc(-c2ccccc2-c2nn[nH]n2)cc1 |  |  |  | > 1000 | inhibition in vivo at 3 mg/kg [9]: 64%; Duration [7]: 4.2 h; inhibition in vivo at 1 mg/kg [10]: 28%; inhibition in vivo at 3 mg/kg [11]: 76%
14 | CCCCc1nc2ccc(NC(=O)N(C)C(C)C)cc2c(=O)n1Cc1ccc(-c2ccccc2-c2nn[nH]n2)cc1 |  |  | > 6 h and 4 h and 2.5 h | > 1000 | inhibition in vivo at 0.1 mg/kg [12]: 58%; inhibition in vivo at 0.3 mg/kg [13]: 96%; inhibition in vivo at 1 mg/kg [14]: 84%; inhibition in vivo at 0.03 mg/kg [15]: 16%; Duration [7]: >5 h and >3.5 h and >3 h; inhibition in vivo at 1 mg/kg [16]: 94%; inhibition in vivo at 0.1 mg/kg [17]: 85%; inhibition in vivo at 0.03 mg/kg [18]: 15%; inhibition in vivo at 0.3 mg/kg [19]: 80%
15 | CCCCc1nc2ccc(N(C)C)cc2c(=O)n1Cc1ccc(-c2ccccc2-c2nn[nH]n2)cc1 |  | 5 | > 0.5 h | > 1000 | inhibition in vivo at 1 mg/kg [20]: 55%
16 | CCCCc1nc2ccc(NC(=O)OCc3ccccc3)cc2c(=O)n1Cc1ccc(-c2ccccc2-c2nn[nH]n2)cc1 |  | 4.3 | 1 h | > 1000 | inhibition in vivo at 1 mg/kg [21]: 84%

Row | SMILES | IC50 [1] [nM] | IC50 [2] [nM] | Duration [3] | Activity [4] [nM] | also measured
17 | O=C(O)c1ccccc1-c1ccc(-c2nc3ccc([N+](=O)[O-])cc3c(=O)n2Cc2ccc(-c3ccccc3-c3nnn[nH]3)cc2)cc1 |  | 940 |  |  | 
18 | CCCCc1nc2ccc(O)cc2c(=O)n1Cc1ccc(-c2ccccc2-c2nnn[nH]2)cc1 |  | 27 |  |  | 
19 | CCCCc1nc2ccc([S+](C)[O-])cc2c(=O)n1Cc1ccc(-c2ccccc2-c2nn[nH]n2)cc1 (centres undefined) | 0.9 | 1 | 1.8 h | > 1000 | inhibition in vivo at 1 mg/kg [22]: 89%
20 | CCCCc1nc2ccc(NCc3ccccc3)cc2c(=O)n1Cc1ccc(-c2ccccc2-c2nn[nH]n2)cc1 | 1.1 | 8 |  |  | 
21 | CCCCc1nc2ccc(N(C)C(=O)OCc3ccccc3)cc2c(=O)n1Cc1ccc(-c2ccccc2-c2nn[nH]n2)cc1 |  |  | 0 h | > 1000 | inhibition in vivo at 0.3 mg/kg [23]: 28%
22 | CCCCc1nc2ccc(CC)cc2c(=O)n1Cc1ccc(-c2ccccc2-c2nnn[nH]2)cc1 |  | 4 |  |  | 
23 | CCCCc1nc2ccc(N(C)C(=O)OCc3ccccc3)cc2c(=O)n1Cc1ccc(-c2ccccc2-c2nnn[nH]2)cc1 |  | 0.83 |  |  | 
24 | CCCCc1nc2ccc(OC(=O)NC(C)C)cc2c(=O)n1Cc1ccc(-c2ccccc2-c2nn[nH]n2)cc1 |  | 1 | 0 h | > 1000 | inhibition in vivo at 0.3 mg/kg [23]: 30%
25 | CCCCc1nc2ccc(S(C)(=O)=O)cc2c(=O)n1Cc1ccc(-c2ccccc2-c2nn[nH]n2)cc1 | 7.6 | 3 | 0.5 h | > 1000 | inhibition in vivo at 1 mg/kg [24]: 79%
26 | CCCCc1nc2ccc(-c3ccccn3)cc2c(=O)n1Cc1ccc(-c2ccccc2-c2nnn[nH]2)cc1 | 5 |  |  |  | 
27 | CCCCc1nc2ccc(C(C)C)cc2c(=O)n1Cc1ccc(-c2ccccc2-c2nn[nH]n2)cc1 | 4 | 5 |  | > 1000 | inhibition in vivo at 3 mg/kg [25]: 72%; Duration [7]: >6 h; inhibition in vivo at 1 mg/kg [26]: 34%; inhibition in vivo at 3 mg/kg [27]: 90%
28 | CCCCc1nc2ccc(NC)cc2c(=O)n1Cc1ccc(-c2ccccc2-c2nn[nH]n2)cc1 |  |  | 1.2 h | > 1000 | inhibition in vivo at 1 mg/kg [28]: 94%
29 | CCCCc1nc2ccc(N(C)C(=O)OCC(C)C)cc2c(=O)n1Cc1ccc(-c2ccccc2-c2nn[nH]n2)cc1 |  |  |  | > 1000 | Duration [7]: 3.5 h; inhibition in vivo at 1 mg/kg [16]: 72%; inhibition in vivo at 0.3 mg/kg [29]: 60%
30 | Nc1ccc2nc(-c3ccc(-c4ccccc4C(=O)O)cc3)n(Cc3ccc(-c4ccccc4-c4nn[nH]n4)cc3)c(=O)c2c1 |  | 33 |  |  | 
31 | CCCCc1nc2ccc(N(C)C(=O)N(C)C(C)C)cc2c(=O)n1Cc1ccc(-c2ccccc2-c2nnn[nH]2)cc1 | 0.58 |  |  |  | 

From ChEMBL document CHEMBL1127007, “Quinazolinones 2: QSAR and in vivo characterization of AT1 selective AII antagonists” (Bioorg Med Chem Lett, 1993)
